Laboratory results: patent US20240409886A1, “CULTURE MEDIUM COMPRISING DIPEPTIDES” (Evonik Operations GmbH, priority 2017, published 2024)
Residues, ends and D or L forms follow the SMILES beside them.

Test system: antibody-producing Chinese Hamster Ovary (CHO) cell (subclone DG44)
Assay: viable cell density in CHO cell culture with increasing Gln-Asn dipeptide (OFAT)
Format: cell-based
Protocol: The effect of the Gln-Asn dipeptide on an antibody-producing Chinese Hamster Ovary (CHO) cell (subclone DG44; Life Technologies Corporation, Carlsbad, USA) was investigated using one-factor-at-a-time (OFAT) analysis.
The analysis was based on a comparison of the viable cell density and cell viability in a series of cell cultures, which were conducted at substantially identical culturing conditions, however, with increasing amounts of the Gln-Asn dipeptide in the medium. In order to keep the total amounts of Asn and Gln units (molar basis) in the various culture media constant, the molar concentration of free glutamine and free asparagine was reduced in accordance with the molar amount of the dipeptide added. A series of culture media having increasing amounts of the Gln-Asn dipeptide was prepared by mixing varying amounts of a Base Medium (comprising free Asn and Gln) and a Test Medium (comprising Asn-Gln dipeptide). A commercially available defined cell culture medium (TC-42, TeutoCell AG, Bielefeld, Germany) served as the Base Medium. (Any other suitable cell culture medium could be used.) A Test Medium (TC-42-EVO) was prepared so as to have identical nutrient concentrations compared to the Base Medium, however, instead of free Asn the Test Medium contained an equimolar amount (5.4 mM) of Gin-Asn dipeptide. Furthermore, the free Gln concentration in the Test Medium was set to a value such that the total concentration of Gln units in the Test Medium (i.e., free Gln and dipeptide-Gln) matched the concentration of free Gln in the Base Medium. All other nutrient concentrations in the Test Medium were the same as in the Base Medium. The Base Medium contained 1461.5 mg/l free Gln and 612 mg/l free Asn.
Six cell cultivations were then conducted with media containing varying amounts of the Test Medium and the Base Medium in the following proportions:
All media were set to pH 8.3. Salinity of the culture media was set to 285 mOsmol/kg with NaCl. All cultivations were conducted in on a rotary shaker under identical culture conditions (temperature, humidity, rpm, CO2, etc.), using standard cell culture methods. Three passages of a cell culture are conducted and viable cell density (VCD; 10^6 viable cells/ml) and cell viability (%) was followed in duplicate determinations, using […] determination.
A correlation of the maximum viable cell density (third passage) with the concentration of the dipeptide is observed. The greatest maximum viable cell density is obtained in cultivation #1, i.e., in the cultivation in which all Asn is provided in the form of the Asn-containing dipeptide. The lowest maximum viable cell density is obtained in cultivation #6, i.e., in the cultivation in which all of the Asn in provided as free amino acid. Furthermore, it can be seen that the increased viable cell density is maintained over an extended period of time (day 13 through day 18).

Compound: NC(=O)CC[C@H](N)C(=O)N[C@@H](CC(N)=O)C(=O)O [Gln-Asn, L-glutaminyl-L-asparagine] (H-Gln-Asn-OH)
- viable cell density (0.3 mM dipeptide (#5), time 0): 0.285 10^6 cells/ml
- viable cell density (0.3 mM dipeptide (#5), time 0.89): 0.485 10^6 cells/ml
- viable cell density (0.3 mM dipeptide (#5), time 3.08): 1.985 10^6 cells/ml
- viable cell density (0.3 mM dipeptide (#5), time 3.71): 3.325 10^6 cells/ml
- viable cell density (0.3 mM dipeptide (#5), time 4.08): 0.265 10^6 cells/ml
- viable cell density (0.3 mM dipeptide (#5), time 4.70): 1.12 10^6 cells/ml
- viable cell density (0.3 mM dipeptide (#5), time 5.69): 1.555 10^6 cells/ml
- viable cell density (0.3 mM dipeptide (#5), time 6.88): 3.8 10^6 cells/ml
- viable cell density (0.3 mM dipeptide (#5), time 7.04): 0.31 10^6 cells/ml
- viable cell density (0.3 mM dipeptide (#5), time 7.80): 1.17 10^6 cells/ml
- viable cell density (0.3 mM dipeptide (#5), time 8.78): 2.01 10^6 cells/ml
- viable cell density (0.3 mM dipeptide (#5), time 9.82): 3.9 10^6 cells/ml
- viable cell density (0.3 mM dipeptide (#5), time 10.99): 6.065 10^6 cells/ml
- viable cell density (0.3 mM dipeptide (#5), time 12.02): 8.21 10^6 cells/ml
- viable cell density (0.3 mM dipeptide (#5), time 12.75): 7.135 10^6 cells/ml
- viable cell density (0.3 mM dipeptide (#5), time 13.89): 5.13 10^6 cells/ml
- viable cell density (0.3 mM dipeptide (#5), time 14.74): 5.54 10^6 cells/ml
- viable cell density (0.3 mM dipeptide (#5), time 15.79): 4.075 10^6 cells/ml
- viable cell density (0.3 mM dipeptide (#5), time 16.89): 2.775 10^6 cells/ml
- viable cell density (0.3 mM dipeptide (#5), time 18.06): 1.825 10^6 cells/ml
- viable cell density (0.8 mM dipeptide (#4), time 0): 0.27 10^6 cells/ml
- viable cell density (0.8 mM dipeptide (#4), time 0.89): 0.565 10^6 cells/ml
- viable cell density (0.8 mM dipeptide (#4), time 3.08): 2.285 10^6 cells/ml
- viable cell density (0.8 mM dipeptide (#4), time 3.71): 3.4 10^6 cells/ml
- viable cell density (0.8 mM dipeptide (#4), time 4.08): 0.365 10^6 cells/ml
- viable cell density (0.8 mM dipeptide (#4), time 4.70): 0.665 10^6 cells/ml
- viable cell density (0.8 mM dipeptide (#4), time 5.69): 1.545 10^6 cells/ml
- viable cell density (0.8 mM dipeptide (#4), time 6.88): 3.36 10^6 cells/ml
- viable cell density (0.8 mM dipeptide (#4), time 7.04): 0.32 10^6 cells/ml
- viable cell density (0.8 mM dipeptide (#4), time 7.80): 1.12 10^6 cells/ml
- viable cell density (0.8 mM dipeptide (#4), time 8.78): 1.86 10^6 cells/ml
- viable cell density (0.8 mM dipeptide (#4), time 9.82): 3.6 10^6 cells/ml
- viable cell density (0.8 mM dipeptide (#4), time 10.99): 6.31 10^6 cells/ml
- viable cell density (0.8 mM dipeptide (#4), time 12.02): 7.805 10^6 cells/ml
- viable cell density (0.8 mM dipeptide (#4), time 12.75): 7.545 10^6 cells/ml
- viable cell density (0.8 mM dipeptide (#4), time 13.89): 5.86 10^6 cells/ml
- viable cell density (0.8 mM dipeptide (#4), time 14.74): 5.26 10^6 cells/ml
- viable cell density (0.8 mM dipeptide (#4), time 15.79): 4.065 10^6 cells/ml
- viable cell density (0.8 mM dipeptide (#4), time 16.89): 3.175 10^6 cells/ml
- viable cell density (0.8 mM dipeptide (#4), time 18.06): 2.3 10^6 cells/ml
- viable cell density (1.4 mM dipeptide (#3), time 0): 0.265 10^6 cells/ml
- viable cell density (1.4 mM dipeptide (#3), time 0.89): 0.495 10^6 cells/ml
- viable cell density (1.4 mM dipeptide (#3), time 3.08): 1.8 10^6 cells/ml
- viable cell density (1.4 mM dipeptide (#3), time 3.71): 2.415 10^6 cells/ml
- viable cell density (1.4 mM dipeptide (#3), time 4.08): 0.315 10^6 cells/ml
- viable cell density (1.4 mM dipeptide (#3), time 4.70): 0.65 10^6 cells/ml
- viable cell density (1.4 mM dipeptide (#3), time 5.69): 1.47 10^6 cells/ml
- viable cell density (1.4 mM dipeptide (#3), time 6.88): 3.365 10^6 cells/ml
- viable cell density (1.4 mM dipeptide (#3), time 7.04): 0.33 10^6 cells/ml
- viable cell density (1.4 mM dipeptide (#3), time 7.80): 0.77 10^6 cells/ml
- viable cell density (1.4 mM dipeptide (#3), time 8.78): 1.615 10^6 cells/ml
- viable cell density (1.4 mM dipeptide (#3), time 9.82): 2.97 10^6 cells/ml
- viable cell density (1.4 mM dipeptide (#3), time 10.99): 5.25 10^6 cells/ml
- viable cell density (1.4 mM dipeptide (#3), time 12.02): 8.29 10^6 cells/ml
- viable cell density (1.4 mM dipeptide (#3), time 12.75): 9.23 10^6 cells/ml
- viable cell density (1.4 mM dipeptide (#3), time 13.89): 8.975 10^6 cells/ml
- viable cell density (1.4 mM dipeptide (#3), time 14.74): 9.58 10^6 cells/ml
- viable cell density (1.4 mM dipeptide (#3), time 15.79): 9.535 10^6 cells/ml
- viable cell density (1.4 mM dipeptide (#3), time 16.89): 7.395 10^6 cells/ml
- viable cell density (1.4 mM dipeptide (#3), time 18.06): 5.985 10^6 cells/ml
- viable cell density (4.3 mM dipeptide (#2), time 0): 0.27 10^6 cells/ml
- viable cell density (4.3 mM dipeptide (#2), time 0.89): 0.51 10^6 cells/ml
- viable cell density (4.3 mM dipeptide (#2), time 3.08): 1.615 10^6 cells/ml
- viable cell density (4.3 mM dipeptide (#2), time 3.71): 2.13 10^6 cells/ml
- viable cell density (4.3 mM dipeptide (#2), time 4.08): 0.3 10^6 cells/ml
- viable cell density (4.3 mM dipeptide (#2), time 4.70): 0.54 10^6 cells/ml
- viable cell density (4.3 mM dipeptide (#2), time 5.69): 1.545 10^6 cells/ml
- viable cell density (4.3 mM dipeptide (#2), time 6.88): 3.555 10^6 cells/ml
- viable cell density (4.3 mM dipeptide (#2), time 7.04): 0.305 10^6 cells/ml
- viable cell density (4.3 mM dipeptide (#2), time 7.80): 1.045 10^6 cells/ml
- viable cell density (4.3 mM dipeptide (#2), time 8.78): 1.545 10^6 cells/ml
- viable cell density (4.3 mM dipeptide (#2), time 9.82): 2.8 10^6 cells/ml
- viable cell density (4.3 mM dipeptide (#2), time 10.99): 5.115 10^6 cells/ml
- viable cell density (4.3 mM dipeptide (#2), time 12.02): 7.215 10^6 cells/ml
- viable cell density (4.3 mM dipeptide (#2), time 12.75): 9.42 10^6 cells/ml
- viable cell density (4.3 mM dipeptide (#2), time 13.89): 9.645 10^6 cells/ml
- viable cell density (4.3 mM dipeptide (#2), time 14.74): 9.985 10^6 cells/ml
- viable cell density (4.3 mM dipeptide (#2), time 15.79): 11.08 10^6 cells/ml
- viable cell density (4.3 mM dipeptide (#2), time 16.89): 9.195 10^6 cells/ml
- viable cell density (4.3 mM dipeptide (#2), time 18.06): 8.905 10^6 cells/ml
- viable cell density (5.4 mM dipeptide (#1), time 0): 0.28 10^6 cells/ml
- viable cell density (5.4 mM dipeptide (#1), time 0.89): 0.59 10^6 cells/ml
- viable cell density (5.4 mM dipeptide (#1), time 3.08): 1.38 10^6 cells/ml
- viable cell density (5.4 mM dipeptide (#1), time 3.71): 1.64 10^6 cells/ml
- viable cell density (5.4 mM dipeptide (#1), time 4.08): 0.365 10^6 cells/ml
- viable cell density (5.4 mM dipeptide (#1), time 4.70): 0.56 10^6 cells/ml
- viable cell density (5.4 mM dipeptide (#1), time 5.69): 1.33 10^6 cells/ml
- viable cell density (5.4 mM dipeptide (#1), time 6.88): 3.16 10^6 cells/ml
- viable cell density (5.4 mM dipeptide (#1), time 7.04): 0.335 10^6 cells/ml
- viable cell density (5.4 mM dipeptide (#1), time 7.80): 0.665 10^6 cells/ml
- viable cell density (5.4 mM dipeptide (#1), time 8.78): 1.26 10^6 cells/ml
- viable cell density (5.4 mM dipeptide (#1), time 9.82): 2.67 10^6 cells/ml
- viable cell density (5.4 mM dipeptide (#1), time 10.99): 3.57 10^6 cells/ml
- viable cell density (5.4 mM dipeptide (#1), time 12.02): 4.91 10^6 cells/ml
- viable cell density (5.4 mM dipeptide (#1), time 12.75): 6.415 10^6 cells/ml
- viable cell density (5.4 mM dipeptide (#1), time 13.89): 8.285 10^6 cells/ml
- viable cell density (5.4 mM dipeptide (#1), time 14.74): 11.695 10^6 cells/ml
- viable cell density (5.4 mM dipeptide (#1), time 15.79): 10.075 10^6 cells/ml
- viable cell density (5.4 mM dipeptide (#1), time 16.89): 7.995 10^6 cells/ml
- viable cell density (5.4 mM dipeptide (#1), time 18.06): 6.6 10^6 cells/ml
- maximum viable cell density (third passage) (cultivation #1, all Asn provided in the form of the dipeptide (5.4 mM), compared among cultivations #1-6): greatest
